How the values were obtained:
[1] = target: T1, phosphorylated EGFR (pEGFR) (Homo sapiens, UniProt P00533); experiment: Detection of phosphorylated EGFR (pEGFR) in EGF-stimulated A431 cells; type: cell-based; settings: A431 cells (10% FBS), 4 hours incubation, EGF 30 ng/mL 10 minutes, AlphaLISA
T1 construct: performed to measure phosphorylated EGFR levels using A431 cells (10% FBS); endogenous in cells; host or cells: A431
Description: Enzyme-linked immunosorbent assays (ELISA) were performed to measure phosphorylated EGFR levels using A431 cells (10% FBS). A431 (1.0*10^4 cells/40 μl/well) cells were seeded in 384 well. Compounds were dissolved in DMSO, serially diluted in DMSO and then were added, mixed, and incubated for 4 hours at 37° C., 5% CO2. Following the 4-hours incubation, cells were stimulated for 10 minutes with EGF (Invitrogen, cat #PHG0311) at a final concentration of 30 ng/mL in the incubator. The media was aspirated and cells were lysed in 10 μL lysis buffer with protease and phosphatase inhibitors (PerkinElmer, cat #ALSU-PEGFR-A50K). The plates were placed on a shaker for 5 minutes and then incubated for 30 min at 4° C. for complete lysis. The lysate was transferred to an Optiplate (Perkin Elmer, cat #6007290).
Acceptor mix (PerkinElmer, cat #ALSU-PEGFR-A50K) was prepared just before use and 5 μL was dispensed to all the wells, followed by a 1.5-2 h incubation at room temperature in dark. The donor mix (PerkinElmer, cat #ALSU-PEGFR-A50K) was prepared under low light conditions prior to use and […] of donor mix was added to all the wells under subdued lighting or green filters. The plates were placed on a shaker for 5 min, sealed, and incubated overnight at room temperature in dark. Plates were read on the Envision (PerkinElmer) using standard AlphaLISA settings.
The percentage of inhibition on EGFR phosphorylation was calculated following equation: % Inhibition=100×(LumHC−LumSample)/(LumHC−LumLC). The low and high controls (LC/HC) are generated from lysate from wells with cells treated with DMSO or […] Staurosporine (BioAustralis, cat #BIA-S1086), […]. IC50 values were calculated by fitting the Curve using XLfit (v5.3.1.3), equation 201: Y=Bottom+(Top−Bottom)/(1+10^((Log IC50−X)*HillSlope)).

[2] = target: T2, phosphorylated ERBB2 (pERBB2) (Homo sapiens, UniProt P04626); experiment: Detection of phosphorylated ERBB2 (pERBB2) by ELISA in BT-474 cells; type: cell-based; settings: four hours incubation
T2 construct: endogenous in cells; host or cells: BT-474
T2 sequence (P04626 23-1255): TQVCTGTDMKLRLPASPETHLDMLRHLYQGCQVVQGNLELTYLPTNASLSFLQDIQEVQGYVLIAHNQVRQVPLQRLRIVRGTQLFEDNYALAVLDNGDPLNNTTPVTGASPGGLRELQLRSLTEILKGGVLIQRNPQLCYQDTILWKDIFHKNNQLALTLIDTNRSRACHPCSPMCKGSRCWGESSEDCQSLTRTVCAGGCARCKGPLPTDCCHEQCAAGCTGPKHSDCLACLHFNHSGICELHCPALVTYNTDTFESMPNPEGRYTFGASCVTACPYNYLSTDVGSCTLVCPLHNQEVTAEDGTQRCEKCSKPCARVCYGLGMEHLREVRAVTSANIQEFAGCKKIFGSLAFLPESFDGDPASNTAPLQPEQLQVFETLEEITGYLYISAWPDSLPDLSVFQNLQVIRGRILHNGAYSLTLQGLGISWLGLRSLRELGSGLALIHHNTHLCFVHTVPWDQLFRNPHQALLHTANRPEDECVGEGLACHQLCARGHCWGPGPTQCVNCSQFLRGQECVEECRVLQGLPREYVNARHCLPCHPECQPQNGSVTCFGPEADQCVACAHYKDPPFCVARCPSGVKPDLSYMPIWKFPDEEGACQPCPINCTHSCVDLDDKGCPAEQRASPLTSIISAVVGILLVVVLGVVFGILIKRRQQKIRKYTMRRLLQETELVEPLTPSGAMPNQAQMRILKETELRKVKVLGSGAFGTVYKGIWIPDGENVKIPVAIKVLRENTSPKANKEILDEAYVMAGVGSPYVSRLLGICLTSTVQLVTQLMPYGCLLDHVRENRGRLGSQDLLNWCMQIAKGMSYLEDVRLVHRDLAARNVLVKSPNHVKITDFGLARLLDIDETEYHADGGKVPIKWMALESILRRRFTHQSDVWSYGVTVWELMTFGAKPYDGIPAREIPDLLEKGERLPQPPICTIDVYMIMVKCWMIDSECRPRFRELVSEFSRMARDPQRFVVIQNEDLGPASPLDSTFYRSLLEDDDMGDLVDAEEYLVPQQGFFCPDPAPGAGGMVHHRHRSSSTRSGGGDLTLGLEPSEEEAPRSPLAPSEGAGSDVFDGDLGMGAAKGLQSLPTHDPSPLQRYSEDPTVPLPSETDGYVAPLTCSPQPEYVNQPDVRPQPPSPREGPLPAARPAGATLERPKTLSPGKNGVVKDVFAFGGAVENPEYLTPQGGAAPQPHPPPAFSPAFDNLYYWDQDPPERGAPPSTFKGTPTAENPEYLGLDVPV
Description: BT-474 cells were seeded into a 96-well at 2.0*10^4 cells/100 μl/well.
Compounds were dissolved and serially diluted in DMSO. The compounds were then were added, mixed, and incubated for four hours at 37° C., 5% CO2. Compounds were added using four-fold dilutions at final concentrations ranging from 10 μM to 0.01 nM.
Following the four hour incubation with compounds, cell lysates were prepared.
Plates were centrifuged for 5 min at 3000 RPM, and supernatant was removed from each well. Cells were washed 3 times by resuspension in 150 μl PBS, followed by centrifugation and removal of the supernatant, as above. […] Cells were incubated with lysis buffer for 1 hour at 4° C., and then stored at −80° C.
Enzyme-linked immunosorbent assays (ELISA) were performed to measure phosphorylated ERBB2 levels. […] The next day, plates were washed with PBS+0.05% Tween20 (PBST). 150 μl of 5% BSA blocking solution was added for 1 hour at room temperature, with shaking. Plates were washed with PBST. Cell lysates were thawed and 100 μl of lysate was added to the ELISA plate. The plates were incubated for 2 hours at room temperature, with shaking. […] Plates were incubated for 1 hour at room temperature, with shaking. Plates were then washed with PBST, and 100 μl TMB substrate solution (R&D Systems, cat #DY999) was added. Plate were incubated in the dark for 20 minutes at room temperature. 50 μl of Stop solution (R&D Systems, cat #DY994) (50 μl) was added to each well and mixed.
Optical density at 450 nm was read on an EnSpire plate reader (Perkin Elmer). The remaining kinase activity by calculated using the following formula: % Relative activity=100×(A450sample−A450LC)/(A450HC−A450LC). The low and high control values (“LC” and “HC”) were generated from lysate from wells without cells or with cells treated with 0.1% DMSO, respectively.

[3] = target: Ba/F3 ERBB2 A775_G776insYVMA (Homo sapiens, UniProt P04626, DUP772-775, cells depend on it); experiment: Cell viability assay, Ba/F3 ERBB2 A775_G776insYVMA; type: cell-based, mouse; settings: Ba/F3 ERBB2 YVMA cells, cell viability, 72 hours, CellTiter Glo; Table B5; read-out: Ba/F3 ERBB2 YVMA, IC50
Sequence of Ba/F3 ERBB2 A775_G776insYVMA (P04626 with tags, fused parts or gaps DUP772-775): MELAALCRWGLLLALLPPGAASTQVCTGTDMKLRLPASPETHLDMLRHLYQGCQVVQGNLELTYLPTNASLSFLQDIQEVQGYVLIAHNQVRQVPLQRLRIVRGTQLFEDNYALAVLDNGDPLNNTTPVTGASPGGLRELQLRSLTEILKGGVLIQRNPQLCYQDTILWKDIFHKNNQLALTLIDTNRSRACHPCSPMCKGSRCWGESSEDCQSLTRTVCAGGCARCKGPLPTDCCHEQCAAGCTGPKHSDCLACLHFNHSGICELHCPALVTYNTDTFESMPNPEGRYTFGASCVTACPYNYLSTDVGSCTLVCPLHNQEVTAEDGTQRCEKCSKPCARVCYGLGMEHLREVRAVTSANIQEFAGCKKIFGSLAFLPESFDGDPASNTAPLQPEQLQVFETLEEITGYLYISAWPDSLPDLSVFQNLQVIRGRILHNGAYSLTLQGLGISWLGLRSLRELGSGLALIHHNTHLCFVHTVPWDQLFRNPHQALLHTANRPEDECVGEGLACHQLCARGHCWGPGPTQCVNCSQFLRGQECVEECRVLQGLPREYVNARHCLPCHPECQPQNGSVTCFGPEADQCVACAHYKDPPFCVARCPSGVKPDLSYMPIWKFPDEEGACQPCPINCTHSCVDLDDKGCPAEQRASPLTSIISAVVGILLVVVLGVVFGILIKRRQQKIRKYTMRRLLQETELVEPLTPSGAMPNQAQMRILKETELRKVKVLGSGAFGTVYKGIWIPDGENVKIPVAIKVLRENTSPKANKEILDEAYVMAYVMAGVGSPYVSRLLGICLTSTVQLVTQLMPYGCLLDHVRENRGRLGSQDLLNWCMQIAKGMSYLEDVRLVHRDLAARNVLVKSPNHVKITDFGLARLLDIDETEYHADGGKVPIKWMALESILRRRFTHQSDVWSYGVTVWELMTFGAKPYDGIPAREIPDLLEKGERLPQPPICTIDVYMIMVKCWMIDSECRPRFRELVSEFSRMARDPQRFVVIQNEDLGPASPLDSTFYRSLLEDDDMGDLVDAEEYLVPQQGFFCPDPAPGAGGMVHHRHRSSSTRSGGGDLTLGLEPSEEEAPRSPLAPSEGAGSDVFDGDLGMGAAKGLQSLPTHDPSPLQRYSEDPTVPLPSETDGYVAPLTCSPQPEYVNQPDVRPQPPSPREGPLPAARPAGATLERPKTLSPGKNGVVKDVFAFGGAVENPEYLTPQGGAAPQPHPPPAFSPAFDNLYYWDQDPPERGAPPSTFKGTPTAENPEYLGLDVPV
Description: Cells were treated with compounds, and cell viability was measured as a metric of kinase inhibition.
The Ba/F3 cell line is IL-3-dependent mouse cell line derived from the C3H mouse strain. Ba/F3 cell lines were engineered to express human ERBB2 or EGFR kinases, rendering the cells IL-3 independent. The lines were generated via retroviral transduction utilizing a Moloney murine leukemia virus (MMLV) promoter, and constructs are stably integrated into the cell genome. The sequences of the ERBB2 and EGFR genes used were NCBI Reference Sequences NM_004448.3 and NM_005228.3, respectively.
Similarly, Ba/F3 cell lines engineered to express EGFR, ERBB2, or ERBB2 mutants were grown, harvested, counted and seeded at 3000 cells per well in 96-well plates. A subset of wells contained media only (low control, “LC”).
Table B1 provides the growth media and number of cells seeded per well for the each cell line.
Plates were placed in a 37° C., 5% CO2 incubator for 72 hours. Plates were then removed from the incubator and equilibrated for 15 minutes at room temperature. 40 μl of CellTiter Glo reagent (Promega) was added to measure the relative level of metabolically active cells by quantifying intracellular ATP concentrations. Plates were incubated for 30 minutes at room temperature, and luminescence was measured. […] Graphical curves were fitted using a nonlinear regression model with a sigmoidal dose response.

T1 sequence (P00533 25-1210): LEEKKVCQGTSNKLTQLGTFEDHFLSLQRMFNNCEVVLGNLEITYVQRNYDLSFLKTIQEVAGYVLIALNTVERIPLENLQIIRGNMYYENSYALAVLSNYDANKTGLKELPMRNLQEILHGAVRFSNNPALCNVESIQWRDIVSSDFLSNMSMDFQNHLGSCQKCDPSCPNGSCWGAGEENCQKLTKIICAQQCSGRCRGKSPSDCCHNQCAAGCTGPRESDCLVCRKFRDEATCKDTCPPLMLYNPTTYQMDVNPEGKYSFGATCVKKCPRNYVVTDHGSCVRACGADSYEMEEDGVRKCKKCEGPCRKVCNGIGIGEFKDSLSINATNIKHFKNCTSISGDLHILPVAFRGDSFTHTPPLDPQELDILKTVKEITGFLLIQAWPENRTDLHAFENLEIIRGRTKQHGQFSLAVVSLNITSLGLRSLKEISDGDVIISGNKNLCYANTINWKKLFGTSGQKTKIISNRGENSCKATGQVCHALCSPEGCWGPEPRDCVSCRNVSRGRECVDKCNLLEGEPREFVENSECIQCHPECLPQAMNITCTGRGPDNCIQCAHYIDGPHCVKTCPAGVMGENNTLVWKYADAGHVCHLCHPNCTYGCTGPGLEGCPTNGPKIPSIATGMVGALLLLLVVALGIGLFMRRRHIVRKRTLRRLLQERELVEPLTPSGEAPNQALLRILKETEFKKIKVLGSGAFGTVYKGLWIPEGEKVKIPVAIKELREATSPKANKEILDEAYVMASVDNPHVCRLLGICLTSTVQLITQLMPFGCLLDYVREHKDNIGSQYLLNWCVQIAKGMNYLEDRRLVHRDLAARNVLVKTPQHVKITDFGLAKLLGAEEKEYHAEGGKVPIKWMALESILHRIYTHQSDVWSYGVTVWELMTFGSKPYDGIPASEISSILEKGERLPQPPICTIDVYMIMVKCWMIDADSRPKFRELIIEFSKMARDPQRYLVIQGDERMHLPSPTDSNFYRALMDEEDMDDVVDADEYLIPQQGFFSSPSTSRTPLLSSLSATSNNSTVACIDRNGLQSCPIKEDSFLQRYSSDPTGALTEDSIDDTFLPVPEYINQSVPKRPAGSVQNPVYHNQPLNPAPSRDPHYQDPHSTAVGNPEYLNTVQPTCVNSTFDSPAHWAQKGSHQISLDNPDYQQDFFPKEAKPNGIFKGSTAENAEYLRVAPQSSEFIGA

Structure (SMILES) | IC50 [1] [µM] | IC50 [2] [µM] | GI50 [3] [µM]
Cc1cc(Nc2ncnc3ccc(N4CCC(=CCN(C)C)C4=O)cc23)ccc1Oc1ccn2ncnc2c1 (single isomer, unassigned) [Compound 17, (Z)-3-[2-(dimethylamino)ethylidene]-1-[4-[(3-methyl-4-[[1,2,4]triazolo[1,5-a]pyridin-7-yloxy]phenyl)amino]quinazolin-6-yl]pyrrolidin-2-one] | > 10 | 0.0197 | –
CC1CN(c2cc3c(Nc4ccc(Oc5ccc6c(c5)nnn6C)cc4)ncnc3cn2)C(=O)/C1=C/CN(C)C (single isomer, unassigned) [Compound 136] | 1.67 | 0.0726 | 0.018
CC1CN(c2cc3c(Nc4ccc(Oc5ccc6c(c5)nnn6C)cc4)ncnc3cn2)C(=O)/C1=C/CN(C)C (single isomer, unassigned) [Compound 137] | > 10 | 4.11 | 0.473
C=C1C(=O)N(c2ccc3ncnc(Nc4ccc(Oc5ccn6ncnc6c5)c(C)c4)c3c2)C2CC12 (single isomer, unassigned) [Example S21, Enantiomer # 1, 2-{4-[(3-methyl-4-{[1,2,4]triazolo[1,5-a]pyridin-7-yloxy}phenyl)amino]quinazolin-6-yl}-4-methylidene-2-azabicyclo[3.1.0]hexan-3-one] | 0.538 | 0.0208 | –
C=C1C(=O)N(c2ccc3ncnc(Nc4ccc(Oc5ccn6ncnc6c5)c(C)c4)c3c2)C2CC12 (single isomer, unassigned) [Example S21, Enantiomer # 2, 2-{4-[(3-methyl-4-{[1,2,4]triazolo[1,5-a]pyridin-7-yloxy}phenyl)amino]quinazolin-6-yl}-4-methylidene-2-azabicyclo[3.1.0]hexan-3-one] | 1.98 | 0.0223 | –
C=C1C(=O)N(c2ccc3ncnc(Nc4ccc(Oc5ccc6c(c5)ncn6C)c(C)c4)c3c2)C2CC12 (single isomer, unassigned) [Example S33, Enantiomer # 1, 2-[4-({3-methyl-4-[(1-methyl-1,3-benzodiazol-5-yl)oxy]phenyl}amino)quinazolin-6-yl]-4-methylidene-2-azabicyclo[3.1.0]hexan-3-one] | 1.09 | 0.0232 | 0.00757
C=C1C(=O)N(c2ccc3ncnc(Nc4ccc(Oc5ccc6c(c5)ncn6C)c(C)c4)c3c2)C2CC12 (single isomer, unassigned) [Example S33, Enantiomer # 2, 2-[4-({3-methyl-4-[(1-methyl-1,3-benzodiazol-5-yl)oxy]phenyl}amino)quinazolin-6-yl]-4-methylidene-2-azabicyclo[3.1.0]hexan-3-one] | 0.52 | 0.0249 | 0.0076
C=C1C(=O)N(c2ccc3ncnc(Nc4ccc(Cc5ccn6ncnc6c5)c(C)c4)c3c2)C2CC12 (single isomer, unassigned) [Example S79, Enantiomer #1, 2-(4-((4-([1,2,4]triazolo[1,5-a]pyridin-7-ylmethyl)-3-methylphenyl)amino)quinazolin-6-yl)-4-methylene-2-azabicyclo[3.1.0]hexan-3-one] | 6.1 | 0.0366 | 0.0321
C=C1C(=O)N(c2ccc3ncnc(Nc4ccc(Cc5ccn6ncnc6c5)c(C)c4)c3c2)C2CC12 (single isomer, unassigned) [Example S79, Enantiomer #2, 2-(4-((4-([1,2,4]triazolo[1,5-a]pyridin-7-ylmethyl)-3-methylphenyl)amino)quinazolin-6-yl)-4-methylene-2-azabicyclo[3.1.0]hexan-3-one] | 0.798 | 0.0153 | 0.0137
Cc1cc(Nc2ncnc3cnc(N4CC(C)/C(=C\CN(C)C)C4=O)cc23)ccc1Oc1ccc2c(c1)nnn2C (single isomer, unassigned) [Example S86, Enantiomer #1, (3E)-3-[2-(dimethylamino)ethylidene]-4-methyl-1-[4-({3-methyl-4-[(1-methyl-1,2,3-benzotriazol-5-yl)oxy]phenyl}amino)pyrido[3,4-d]pyrimidin-6-yl]pyrrolidin-2-one] | 0.574 | 0.0115 | 0.00259
Cc1cc(Nc2ncnc3cnc(N4CC(C)/C(=C\CN(C)C)C4=O)cc23)ccc1Oc1ccc2c(c1)nnn2C (single isomer, unassigned) [Example S86, Enantiomer #2, (3E)-3-[2-(dimethylamino)ethylidene]-4-methyl-1-[4-({3-methyl-4-[(1-methyl-1,2,3-benzotriazol-5-yl)oxy]phenyl}amino)pyrido[3,4-d]pyrimidin-6-yl]pyrrolidin-2-one] | > 10 | 0.138 | 0.24
C=C1CCN(c2ccc3ncnc(Nc4ccc(Sc5ccn6ncnc6c5)c(C)c4)c3c2)C1=O [Compound 13, 1-[4-[(3-methyl-4-[[1,2,4]triazolo[1,5-a]pyridin-7-ylsulfanyl]phenyl)amino]quinazolin-6-yl]-3-methylidenepyrrolidin-2-one] | 0.571 | 0.0125 | –
C=C1C(=O)N(c2ccc3ncnc(Nc4ccc(Oc5ccn6ncnc6c5)c(C)c4)c3c2)C[C@@H]1C [Compound 19, (R)-1-(4-((4-([1,2,4]triazolo[1,5-a]pyridin-7-yloxy)-3-methylphenyl)amino)quinazolin-6-yl)-4-methyl-3-methylenepyrrolidin-2-one] | 5.63 | 0.0252 | –
C=C1C(=O)N(c2ccc3ncnc(Nc4ccc(Oc5ccn6ncnc6c5)c(C)c4)c3c2)C[C@H]1C [Compound 20, (S)-1-(4-(4-([1,2,4]triazolo[1,5-a]pyridin-7-yloxy)-3-methylphenylamino)quinazolin-6-yl)-4-methyl-3-methylenepyrrolidin-2-one] | 0.586 | 0.012 | –
C=C1CCN(c2ccc3ncnc(Nc4ccc(Oc5ccn6ncnc6c5)c(C)c4)c3n2)C1=O [Compound 23, 1-{4-[(3-methyl-4-{[1,2,4]triazolo[1,5-a]pyridin-7-yloxy}phenyl)amino]pyrido[3,2-d]pyrimidin-6-yl}-3-methylidenepyrrolidin-2-one] | 6.15 | 0.0232 | –
